Where a SMILES comes first, the peptide text is derived from it. Bridges are numbered along the chain shown (N, C = ends). [ ]: non-standard residue; d: D form. The star is where a group is joined. hPhe(3-Cl-4-CF3) = N[C@@H](CCc1ccc(C(F)(F)F)c(Cl)c1)C(=O)O; NPrPhe(4-CF3) = CCCN[C@@H](Cc1ccc(C(F)(F)F)cc1)C(=O)O; Piperazinyl(4-(3-oxetanyl)) = C1OCC1N1CCN(*)CC1; NMeAbu(4,4,4-F3) = CN[C@@H](CC(F)(F)F)C(=O)O; NMeGly(cPent) = CN[C@H](C(=O)O)C1CCCC1; NMeGly(cBu) = CN[C@H](C(=O)O)C1CCC1; Piperidide(4-Me) = CC1CCN(*)CC1; NMeD = CN[C@@H](CC(=O)O)C(=O)O; NMeL = CN[C@@H](CC(C)C)C(=O)O; Oxazolidin(3-yl) = C1CN(*)CO1; NMeNva = CCC[C@H](NC)C(=O)O; NMeAbu = CC[C@H](NC)C(=O)O; Morpholide = C1CN(*)CCO1; NMeA = CN[C@@H](C)C(=O)O; Ac5c = NC1(C(=O)O)CCCC1; Aze = O=C(O)[C@@H]1CCN1; X11 = CC1(C)CCN(*)C1; Sar = CNCC(=O)O
Tests used:
[1] = molecular target: GDP-bound NRAS wild-type protein (Homo sapiens, UniProt P01111); assay: Binding to NRAS by surface plasmon resonance (SPR), KD and KD ratio to KRAS; details: ratio of KD for GDP-bound NRAS wild-type protein to KD for KRAS
Summary of the method: (§1)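 Compound binding is evaluated by SPR single-cycle kinetics, with concentrations added intermittently from low to high for 75 s each. Target surfaces carry GDP-loaded biotinylated Avi-RAS at about 100–300 RU, regenerated after each cycle; temperature 30°C. A 1:1 binding model gives KD.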

HRAS wild-type protein = HRAS wild-type protein (Homo sapiens, UniProt P01112); assay: Binding to HRAS by surface plasmon resonance (SPR), KD and KD ratio to KRAS; details: ratio of KD for HRAS wild-type protein to KD for KRAS
Summary of the method: as §1

[2] = tested on: human lung cancer strain NCI-H441; format: cell-based
Summary of the method: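 Proliferation was scored by […] measured after the reagent was added to cultures kept at 37°C in 5% carbon dioxide.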

GDP-bound NRAS wild-type protein, sequence (P01111 whole entry): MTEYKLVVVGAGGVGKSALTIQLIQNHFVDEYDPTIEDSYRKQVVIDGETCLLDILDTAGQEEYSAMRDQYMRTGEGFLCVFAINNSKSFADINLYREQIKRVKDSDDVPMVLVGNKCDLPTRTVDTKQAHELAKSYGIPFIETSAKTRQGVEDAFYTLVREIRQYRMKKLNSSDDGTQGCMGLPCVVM
HRAS wild-type protein, sequence (P01112 whole entry): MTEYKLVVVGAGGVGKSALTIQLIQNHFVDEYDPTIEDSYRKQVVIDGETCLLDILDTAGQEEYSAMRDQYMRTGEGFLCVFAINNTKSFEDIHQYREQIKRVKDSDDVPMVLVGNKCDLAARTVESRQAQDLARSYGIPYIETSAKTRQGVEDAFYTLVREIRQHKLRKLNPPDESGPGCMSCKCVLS

Row | IC50 [2] | SMILES | NRAS /KRAS [1] | HRAS /KRAS (HRAS wild-type protein)
1 | 3.9 nM | CCCN1C(=O)CN(C)C(=O)CN(C)C(=O)[C@H]([C@@H](C)CC)NC(=O)[C@H](C2CCC2)N(C)C(=O)C[C@@H](C(=O)N2CCOCC2)N(C)C(=O)[C@H](C2CCCC2)N(C)C(=O)C2(CCCC2)NC(=O)[C@@H]2CCCN2C(=O)[C@H](CCc2ccc(C(F)(F)F)c(Cl)c2)NC(=O)CN(C)C(=O)[C@@H]1Cc1ccc(C(F)(F)F)cc1 [PP0188] ([NMeGly(cBu)]I[Sar][Sar][NPrPhe(4-CF3)][Sar][hPhe(3-Cl-4-CF3)]P[Ac5c][NMeGly(cPent)][NMeD]-Morpholide; lactam N-11) | B (a compound having 3 or more and less than 10 is denoted as B) | C (A compound having a KD ratio of 0.1 or more and less than 3 is denoted as C)
2 | 3 nM | CCC[C@H]1C(=O)N[C@@H]([C@@H](C)CC)C(=O)N(C)CC(=O)N(C)CC(=O)N(CCC)[C@@H](Cc2ccc(C(F)(F)F)cc2)C(=O)N(C)CC(=O)N[C@@H](CCc2ccc(C(F)(F)F)c(Cl)c2)C(=O)N2CCC[C@H]2C(=O)NC2(CCCC2)C(=O)N(C)[C@@H](C2CCCC2)C(=O)N(C)[C@H](C(=O)N2CCOCC2)CC(=O)N1C [PP0189] ([NMeNva]I[Sar][Sar][NPrPhe(4-CF3)][Sar][hPhe(3-Cl-4-CF3)]P[Ac5c][NMeGly(cPent)][NMeD]-Morpholide; lactam N-11) | B (a compound having 3 or more and less than 10 is denoted as B) | C (A compound having a KD ratio of 0.1 or more and less than 3 is denoted as C)
3 | 4.1 nM | CCCN1C(=O)CN(C)C(=O)CN(C)C(=O)[C@H]([C@@H](C)CC)NC(=O)[C@H](CC)N(C)C(=O)C[C@@H](C(=O)N2CCOCC2)N(C)C(=O)[C@H](C2CCCC2)N(C)C(=O)C2(CCCC2)NC(=O)[C@@H]2CCCN2C(=O)[C@H](CCc2ccc(C(F)(F)F)c(Cl)c2)NC(=O)CN(C)C(=O)[C@@H]1Cc1ccc(C(F)(F)F)cc1 [PP0190] ([NMeAbu]I[Sar][Sar][NPrPhe(4-CF3)][Sar][hPhe(3-Cl-4-CF3)]P[Ac5c][NMeGly(cPent)][NMeD]-Morpholide; lactam N-11) | B (a compound having 3 or more and less than 10 is denoted as B) | B (a compound having 3 or more and less than 10 is denoted as B)
4 | 3.9 nM | CCCN1C(=O)[C@@H]2CCN2C(=O)[C@H](C)N(C)C(=O)[C@H]([C@@H](C)CC)NC(=O)[C@H](CC(F)(F)F)N(C)C(=O)C[C@@H](C(=O)N2CCOCC2)N(C)C(=O)[C@H](C2CCCC2)N(C)C(=O)C2(CCCC2)NC(=O)[C@@H]2CCCN2C(=O)[C@H](CCc2ccc(C(F)(F)F)c(Cl)c2)NC(=O)CN(C)C(=O)[C@@H]1Cc1ccc(C(F)(F)F)cc1 [PP0191] ([NMeAbu(4,4,4-F3)]I[NMeA][Aze][NPrPhe(4-CF3)][Sar][hPhe(3-Cl-4-CF3)]P[Ac5c][NMeGly(cPent)][NMeD]-Morpholide; lactam N-11) | C (A compound having a KD ratio of 0.1 or more and less than 3 is denoted as C) | B (a compound having 3 or more and less than 10 is denoted as B)

The next lines start with the molecule.

Row | SMILES | IC50 [2] | NRAS /KRAS [1] | HRAS /KRAS (HRAS wild-type protein)
5 | CCCN1C(=O)[C@@H]2CCN2C(=O)[C@H](C)N(C)C(=O)[C@H]([C@@H](C)CC)NC(=O)[C@H](CC(C)C)N(C)C(=O)C[C@@H](C(=O)N2CCOC2)N(C)C(=O)[C@H](C2CCCC2)N(C)C(=O)C2(CCCC2)NC(=O)[C@@H]2CCCN2C(=O)[C@H](CCc2ccc(C(F)(F)F)c(Cl)c2)NC(=O)CN(C)C(=O)[C@@H]1Cc1ccc(C(F)(F)F)cc1 [PP0183] ([NMeL]I[NMeA][Aze][NPrPhe(4-CF3)][Sar][hPhe(3-Cl-4-CF3)]P[Ac5c][NMeGly(cPent)][NMeD]-{Oxazolidin(3-yl)}; lactam N-11) | 1.6 nM | C (A compound having a KD ratio of 0.1 or more and less than 3 is denoted as C) | B (a compound having 3 or more and less than 10 is denoted as B)
6 | CCCN1C(=O)[C@@H]2CCN2C(=O)[C@H](C)N(C)C(=O)[C@H]([C@@H](C)CC)NC(=O)[C@H](CC(C)C)N(C)C(=O)C[C@@H](C(=O)N2CCN(C3COC3)CC2)N(C)C(=O)[C@H](C2CCCC2)N(C)C(=O)C2(CCCC2)NC(=O)[C@@H]2CCCN2C(=O)[C@H](CCc2ccc(C(F)(F)F)c(Cl)c2)NC(=O)CN(C)C(=O)[C@@H]1Cc1ccc(C(F)(F)F)cc1 [PP0184] ([NMeL]I[NMeA][Aze][NPrPhe(4-CF3)][Sar][hPhe(3-Cl-4-CF3)]P[Ac5c][NMeGly(cPent)][NMeD]-{Piperazinyl(4-(3-oxetanyl))}; lactam N-11) | 2.1 nM | C (A compound having a KD ratio of 0.1 or more and less than 3 is denoted as C) | B (a compound having 3 or more and less than 10 is denoted as B)
7 | CCCN1C(=O)[C@@H]2CCN2C(=O)[C@H](C)N(C)C(=O)[C@H]([C@@H](C)CC)NC(=O)[C@H](CC(C)C)N(C)C(=O)C[C@@H](C(=O)N2CCC(C)CC2)N(C)C(=O)[C@H](C2CCCC2)N(C)C(=O)C2(CCCC2)NC(=O)[C@@H]2CCCN2C(=O)[C@H](CCc2ccc(C(F)(F)F)c(Cl)c2)NC(=O)CN(C)C(=O)[C@@H]1Cc1ccc(C(F)(F)F)cc1 [PP0185] ([NMeL]I[NMeA][Aze][NPrPhe(4-CF3)][Sar][hPhe(3-Cl-4-CF3)]P[Ac5c][NMeGly(cPent)][NMeD]-{Piperidide(4-Me)}; lactam N-11) | 32.2 nM | C (A compound having a KD ratio of 0.1 or more and less than 3 is denoted as C) | B (a compound having 3 or more and less than 10 is denoted as B)
8 | CCCN1C(=O)[C@@H]2CCN2C(=O)[C@H](C)N(C)C(=O)[C@H]([C@@H](C)CC)NC(=O)[C@H](CC(C)C)N(C)C(=O)C[C@@H](C(=O)N2CCC(C)(C)C2)N(C)C(=O)[C@H](C2CCCC2)N(C)C(=O)C2(CCCC2)NC(=O)[C@@H]2CCCN2C(=O)[C@H](CCc2ccc(C(F)(F)F)c(Cl)c2)NC(=O)CN(C)C(=O)[C@@H]1Cc1ccc(C(F)(F)F)cc1 [PP0186] ([NMeL]I[NMeA][Aze][NPrPhe(4-CF3)][Sar][hPhe(3-Cl-4-CF3)]P[Ac5c][NMeGly(cPent)][NMeD]-X11; lactam N-11) | 20.5 nM | C (A compound having a KD ratio of 0.1 or more and less than 3 is denoted as C) | B (a compound having 3 or more and less than 10 is denoted as B)
9 | CCCN1C(=O)CN(C)C(=O)CN(C)C(=O)[C@H]([C@@H](C)CC)NC(=O)[C@H](CC(F)(F)F)N(C)C(=O)C[C@@H](C(=O)N2CCOCC2)N(C)C(=O)[C@H](C2CCCC2)N(C)C(=O)C2(CCCC2)NC(=O)[C@@H]2CCCN2C(=O)[C@H](CCc2ccc(C(F)(F)F)c(Cl)c2)NC(=O)CN(C)C(=O)[C@@H]1Cc1ccc(C(F)(F)F)cc1 [PP0187] ([NMeAbu(4,4,4-F3)]I[Sar][Sar][NPrPhe(4-CF3)][Sar][hPhe(3-Cl-4-CF3)]P[Ac5c][NMeGly(cPent)][NMeD]-Morpholide; lactam N-11) | 3 nM | B (a compound having 3 or more and less than 10 is denoted as B) | C (A compound having a KD ratio of 0.1 or more and less than 3 is denoted as C)
